Measurements taken from paper PMC9749936, “Synthesis and structure–activity relationship studies of N-terminal analogues of the lipopeptide antibiotics brevicidine and laterocidine” (RSC Medicinal Chemistry, 2022).
Where two headings read alike, the source gives them in different places. Bridge positions count the residues as written; N and C are the ends. Square brackets hold non-standard residues; d marks the D form. Peptide text beside a SMILES is read from it. * marks the point of attachment. ξ: configuration not given here. Hexanoyl(4ξ-Me) = CCC(C)CCC(=O)*; dOrn = NCCC[C@@H](N)C(=O)O; X1 = CC[C@H](C)CCCCC(=O)*; Orn = NCCC[C@H](N)C(=O)O; Dab = NCC[C@H](N)C(=O)O

Key:
E. coli ATCC 25922 = format: cell-based, Escherichia coli
Method: (§1) The minimum inhibitory concentrations (MICs) of brevicidine and laterocidine analogues were determined against a panel of clinically relevant ESKAPE pathogens; Escherichia coli (E. coli), Klebsiella pneumoniae (K. pneumoniae), Acinetobacter baumannii (A. baumannii), Pseudomonas aeruginosa (P. aeuroginosa) and Staphylococcus aureus (S. aureus), which cause the majority of nosocomial infections in the United States.[16] […] In this resistance mechanism, the polymyxin target (lipid A) is modified, reducing binding affinity. For this reason, a strain of colistin-resistant E. coli carrying the mcr-1 gene was also included in the panel. […]
(§2) IV. Antimicrobial testing
(§3) All minimum inhibitory concentrations (MICs) were determined according to Clinical and Standards Laboratory Institute (CLSI) guidelines. Blood agar plates were inoculated with glycerol stocks of E. coli ATCC 25922, K. pneumoniae ATCC 13883, A. baumannii ATCC 17961, P. aeruginosa PAO1 and S. aureus USA300. The inoculated agar plates were then incubated for 16 h at 37 °C . Individually grown colonies were subsequently used to inoculate 5 mL aliquots of TSB that were then incubated at 37 °C with shaking at 220 rpm. E. coli 25922 MCR-1 glycerol stock was used to inoculate 5 mL of TSB supplemented with kanamycin that was then incubated for 16 h at 37 °C with shaking at 220 rpm. The next day the culture was diluted 100 fold in TSB supplemented with kanamycin and incubated at 37 °C with shaking at 220 rpm. In parallel, the lipopeptide antibiotics DMSO stocks to be assessed were serially diluted with MHB in polypropylene 96-well plates (50 µL in each well). Colistin sulfate stocks were dissolved in water before being diluted with MHB. Aliquots of the inoculated TSB were incubated until an OD600 of around 0.5 was reached. The bacterial suspensions were then diluted with MHB (2 x 10^5 CFU mL-1) and added to the microplates containing the test compounds (50 µL to each well). The well-plates were sealed with an adhesive membrane and after 18 h of incubation at 37 °C with shaking at 600 rpm, the wells were visually inspected for bacterial […]
(§4) growth. MIC values reported are based on three technical replicates and defined as the lowest concentration of the compound that prevented visible growth of bacteria. […]
(§5) The values obtained from a read-out at 415 nm were corrected for background (negative control) and transformed to a percentage relative to the positive control.
(§6) VI. HPLC and HRMS analysis of peptides
(§7) Peptide Name Chemical Calcd Mass found Calcd Overall […]

E. coli ATCC 25922 MCR-1 = format: cell-based, Escherichia coli
Method: as §1
Colisitin sulfate was purchased from Activate Scientific. Kanamycin monosulfate was purchased from MP Biomedicals. E. coli ATCC 25922, S. aureus USA300 (ATCC BAA1717), K. pneumoniae ATCC 13883 and A. baumannii ATCC 17961 belong to the American Type Culture Collection (ATCC). P. aeruginosa PAO1 was kindly provided by L.H.C. Quarles Van Ufford, Utrecht University, Utrecht, The Netherlands. E. coli ATCC 25922 MCR-1 was transfected in house using the pGDP2-MCR1 plasmid kindly provided by Yong-Xin Li, The University of Hong Kong, Hong Kong, China. Sheep blood agar plates (Ref. PB5039A) were purchased from Thermo Scientific. Tryptic soy broth (Ref. 02-200-500) was purchased from Scharlab. Mueller-Hinton broth (Ref. X927.1) was purchased from Carl Roth. Polypropylene 96-wells plates (Ref. 3879) were purchased from Corning. […]
(10.0 mL). 2-Chlorotrityl (CT) chloride resin (2.00 g, 0.81 mmol g-1) and DIPEA (420 µL, 2.40 mmol) were added. […]
A gradient […]
method for C14 - C16 laterocidine was employed, starting at 100% solvent A for 2 min, ramping up to 70 % solvent B over 45 min, ramping up to 100% solvent B over 1 min, remaining there for 6 min before ramping down to 100% solvent A and remaining there for 5 min. High resolution mass spectrometry (HRMS) spectra of brevicidine peptides were recorded by Analytical Services and Environmental Projects (ASEP) at Queen’s University Belfast on a Waters LCT Premier ToF mass spectrometer using the electrospray ionisation (ESI) technique. HRMS spectra of laterocidine peptides were performed on a Thermo Scientific Dionex UltiMate 3000 HPLC system with a Phenomenex Kinetex C18 (2.6 µm, 2.1 x 150 mm) column at 35 °C and equipped with a diode array detector. The following solvent system, at a flow rate of 0.3 mL/min, was used: solvent A = 0.1% formic acid in water, solvent B = 0.1% formic acid in acetonitrile. A gradient method was employed, starting at 95 % solvent A and 5 % solvent B for 1 min, ramping up to 95 % solvent B over 9 min, ramping up to 98 % solvent B over 1 min, remaining there for 1 min before ramping back down to 95 % solvent A over 2 min and remaining there for 1 min.
The system was connected to a Bruker micrOTOF-Q II mass spectrometer (ESI ionization) calibrated internally with sodium […]
as §2
as §3, with “MHB.” for “MHB. Aliquots of the inoculated TSB were incubated until an OD600 of around 0.5 was reached. The bacterial suspensions were then diluted with MHB (2 x 10^5 CFU mL-1) and added to the microplates containing the test compounds (50 µL to each well). The well-plates were sealed with an adhesive membrane and after 18 h of incubation at 37 °C with shaking at 600 rpm, the wells were visually inspected for bacterial”

K. pneumoniae ATCC 13883 = format: cell-based, Klebsiella pneumoniae
Method: as §1, §2, §3, §4, §5, §6, §7

A. baumannii ATCC 17961 = format: cell-based, Acinetobacter baumannii
Method: as §1, §2, §3, §4, §5, §6, §7

P. aeruginosa PAO1 = format: cell-based, Pseudomonas aeruginosa
Method: as §1, §2, §3, §4, §5, §6, §7

S. aureus USA300 = format: cell-based, Staphylococcus aureus
Method: as §1, §2, §3, §4, §5, §6, §7

Sheep red blood cells = format: cell-based
Method: Having ascertained the antimicrobial activity of all synthetic peptides against a panel of ESKAPE pathogens, we next assessed their mammalian toxicity with hemolytic assays using sheep red blood cells. The % hemolysis for all peptides at 64 μg mL^−1 was determined, with the hemolysis induced by the surfactant 0.1% Triton X-100 taken as 100%. […] Hemolysis was <1% for all analogues with a C8 chain or shorter, including the strongest antibacterial peptide C8-Lat (22). Hemolytic activity increased up to C14 (>50% for C14-Lat) and then decreased at longer chain lengths, perhaps due to decreased solubility of peptides or aggregation. […]
Phosphate-Buffered Saline (PBS) containing 0.002% Tween20 (buffer) five times. Then, the red blood cells were normalized to obtain a positive control read-out between 2.5 and 3.0 at 415 nm to stay within the linear range with the maximum sensitivity. A serial dilution of the compounds (128 – 1 µg/mL, 75 µL) was prepared in a 96-well polypropylene plate. The outer border of the plate was filled with 75 µL buffer. Each plate contained a positive control (0.1% Triton-X final concentration, 75 µL) and a negative control (buffer, 75 µL) in triplicate. The normalized blood cells (75 µL) were added and the plates were incubated at 37 °C for 1 h while shaking at 500 rpm. A flat-bottom polystyrene plate with 100 µL buffer in each well was prepared. After incubation, the plates were centrifuged (800 g for 5 min at room temperature) and 25 µL of the supernatant was transferred to their respective wells in the flat-bottom plate. The values obtained from a read-out at 415 nm were corrected for background (negative control) and transformed to a percentage relative to the positive control. […]

[1] = CLSI broth microdilution in MHB, 18 h at 37 °C, visual inspection, three technical replicates

Compound: CC[C@H](C)CCCCC(=O)N[C@@H](CCN)C(=O)N[C@H](C(=O)N[C@@H](CCN)C(=O)N[C@H]1CCNC(=O)[C@H]([C@@H](C)O)NC(=O)[C@H](CCN)NC(=O)[C@H](CCN)NC(=O)[C@H](CC(C)C)NC(=O)[C@@H](CC(C)C)NC(=O)[C@H](CCN)NC1=O)[C@@H](C)O [Colistin, colistin, reference compound] (X1-[Dab]T[Dab][Dab][Dab][dL]L[Dab][Dab]T; lactam 4-C (inferred); N-terminus assumed)
- Antimicrobial activity (MIC) E. coli ATCC 25922 (E. coli ATCC 25922; CLSI broth microdilution in MHB, polypropylene 96-well plates, 18 h at 37 °C, visual inspection, three technical replicates): 0.5 µg/mL
- Antimicrobial activity (MIC) E. coli ATCC 25922 MCR-1 (E. coli ATCC 25922 MCR-1; ATCC 25922, 18 h): 8 µg/mL
- Antimicrobial activity (MIC) K. pneumoniae ATCC 13883 (K. pneumoniae ATCC 13883; [1]): 0.5 µg/mL
- Antimicrobial activity (MIC) A. baumannii ATCC 17961 (A. baumannii ATCC 17961; [1]): ≤0.25 µg/mL
- Antimicrobial activity (MIC) P. aeruginosa PAO1 (P. aeruginosa PAO1; [1]): 4 µg/mL
- Antimicrobial activity (MIC) S. aureus USA300 (S. aureus USA300; [1]): >32 µg/mL
- % Hemolytic activity, sheep red blood cells (Sheep red blood cells; peptide at 64 μg mL^−1, 1 h at 37 °C in PBS with 0.002% Tween20, read-out at 415 nm, relative to 0.1% Triton X-100 taken as 100%, triplicate): <0.1%

Compound: CCC(C)CCC(=O)N[C@H](CC(N)=O)C(=O)N[C@H](Cc1ccc(O)cc1)C(=O)N[C@H](Cc1c[nH]c2ccccc12)C(=O)N[C@H](CCCN)C(=O)N[C@@H](CCCN)C(=O)NCC(=O)N[C@H](CCCN)C(=O)N[C@@H](Cc1c[nH]c2ccccc12)C(=O)N[C@@H]1C(=O)N[C@@H]([C@@H](C)CC)C(=O)NCC(=O)N[C@@H](CO)C(=O)O[C@@H]1C (some centres unmarked) [Compound 1, brevicidine] ({Hexanoyl(4ξ-Me)}-[dN][dY][dW][dOrn][Orn]G[dOrn]WTIGS; ester 9-C)
- Antimicrobial activity (MIC) E. coli ATCC 25922 (E. coli ATCC 25922; ATCC 25922, 18 h): 4 µg/mL
- Antimicrobial activity (MIC) E. coli ATCC 25922 MCR-1 (E. coli ATCC 25922 MCR-1; colistin-resistant strain carrying mcr-1, CLSI broth microdilution in MHB, 18 h at 37 °C, visual inspection, three technical replicates): 4 µg/mL
- Antimicrobial activity (MIC) K. pneumoniae ATCC 13883 (K. pneumoniae ATCC 13883; ATCC 13883, 18 h): 2 µg/mL
- Antimicrobial activity (MIC) A. baumannii ATCC 17961 (A. baumannii ATCC 17961; ATCC 17961, 18 h): 4 µg/mL
- Antimicrobial activity (MIC) P. aeruginosa PAO1 (P. aeruginosa PAO1; PAO1, 18 h): 8 µg/mL
- Antimicrobial activity (MIC) S. aureus USA300 (S. aureus USA300; USA300, 18 h): >32 µg/mL
- % Hemolytic activity, sheep red blood cells (Sheep red blood cells; red cells of sheep, 1 h, 64 μg mL^−1): 0.8%
